Laboratory results published in ChEMBL document CHEMBL4477199, “Design and synthesis of novel bicalutamide and enzalutamide derivatives as antiproliferative agents for the treatment of prostate cancer” (Eur J Med Chem, 2016).

Tests used:
LNCaP [1] = experiment: Potency index, ratio of bicalutamide IC50 to compound IC50 for human LNCAP cells; format: functional
VCaP [2] = experiment: Antiproliferative activity against human VCaP cells after 96 hrs by propidium iodide staining based fluorescence 2D monolayer assay; format: functional, cell-based
[3] = 33000 µM
Description: Solubility in 100% DMSO at 33 mM at -20 degC

CWR22R [4] = experiment: Antiproliferative activity against human 22Rv1 cells after 96 hrs by propidium iodide staining based fluorescence 2D monolayer assay; format: functional, cell-based; conditions: 22Rv1, 96 h
DU-145 [5] = experiment: Antiproliferative activity against human DU145 cells after 96 hrs by propidium iodide staining based fluorescence 2D monolayer assay; format: functional, cell-based; conditions: DU-145, 96 h
[6] = 96 h
Description: Solubility in RPMI1640 culture medium at <30 uM incubated for 4 days by microscopic analysis

DU-145 [7] = experiment: Potency index, ratio of bicalutamide IC50 to compound IC50 for human DU145 cells; format: functional
LNCaP [8] = experiment: Antiproliferative activity against human LNCAP cells after 96 hrs by propidium iodide staining based fluorescence 2D monolayer assay; format: functional, cell-based
VCaP [9] = experiment: Potency index, ratio of bicalutamide IC50 to compound IC50 for human VCaP cells; format: functional
CWR22R [10] = experiment: Potency index, ratio of bicalutamide IC50 to compound IC50 for human 22Rv1 cells; format: functional
[11] = Half life in human liver microsomes at 3 uM preincubated with compound followed by NADPH addition by LC-MS/MS analysis; conditions: liver microsomes
[12] = target: T1, Androgen receptor (Rattus norvegicus) (UniProt P15207); experiment: (§1) Antagonist activity at rat androgen receptor fused with DNA-binding domain of GAL4 expressed in AR-UAS-bla GripTite 293 cells assessed as inhibition of R1881-induced receptor activation preincubated for 30 mins followed by R1881 addition measured after 16 to 24 hrs by betalactamase reporter gene assay; format: cell-based
T1 sequence (whole entry): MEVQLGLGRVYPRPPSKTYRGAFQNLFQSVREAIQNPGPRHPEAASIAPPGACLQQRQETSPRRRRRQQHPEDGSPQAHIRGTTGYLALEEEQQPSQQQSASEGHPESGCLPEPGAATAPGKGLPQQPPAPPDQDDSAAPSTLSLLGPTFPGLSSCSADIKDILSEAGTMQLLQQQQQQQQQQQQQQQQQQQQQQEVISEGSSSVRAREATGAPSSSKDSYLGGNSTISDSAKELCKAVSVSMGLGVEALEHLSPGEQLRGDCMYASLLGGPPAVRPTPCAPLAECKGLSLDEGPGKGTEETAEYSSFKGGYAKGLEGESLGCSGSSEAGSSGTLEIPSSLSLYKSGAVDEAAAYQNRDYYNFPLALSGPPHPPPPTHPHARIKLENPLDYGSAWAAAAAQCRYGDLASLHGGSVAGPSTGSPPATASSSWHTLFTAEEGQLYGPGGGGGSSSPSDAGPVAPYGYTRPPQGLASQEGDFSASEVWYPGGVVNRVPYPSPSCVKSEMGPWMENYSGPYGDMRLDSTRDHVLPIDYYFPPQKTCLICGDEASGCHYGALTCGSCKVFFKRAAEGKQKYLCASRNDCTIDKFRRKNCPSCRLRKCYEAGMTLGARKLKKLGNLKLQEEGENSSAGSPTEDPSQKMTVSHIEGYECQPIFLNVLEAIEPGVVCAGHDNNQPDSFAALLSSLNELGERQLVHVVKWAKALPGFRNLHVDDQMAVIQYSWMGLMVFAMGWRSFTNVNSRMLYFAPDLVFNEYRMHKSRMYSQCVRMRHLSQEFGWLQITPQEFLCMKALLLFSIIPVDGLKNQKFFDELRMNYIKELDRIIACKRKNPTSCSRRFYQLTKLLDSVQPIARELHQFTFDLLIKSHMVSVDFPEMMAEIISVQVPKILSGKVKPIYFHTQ

Androgen receptor = target: T2, Androgen receptor (Rattus norvegicus, UniProt P15207); experiment: as §1; format: cell-based
T2 sequence (P15207 whole entry): T1 sequence (whole entry)

[13] = Apparent permeability from apical to basolateral side in human Caco2 cells at 10 uM incubated for 120 mins by LC-MS/MS analysis; conditions: Caco-2
[14] = Apparent permeability from basolateral to apical side in human Caco2 cells at 10 uM incubated for 120 mins by LC-MS/MS analysis; conditions: Caco-2
HepG2 [15] = experiment: Cytotoxicity against human HepG2 cells assessed as reduction in cell viability after 72 hrs by MTT assay; format: functional, cell-based; conditions: HepG2, 72 h; for minimal effective concentration: read-out: MEC
in vitro = conditions: human, liver microsomes
[16] = Efflux ratio of apparent permeability from basolateral to apical side over apical to basolateral side in human Caco2 cells at 10 uM incubated for 120 mins by LC-MS/MS analysis; conditions: Caco-2
CWR22R [17] = experiment: Antiproliferative activity against human 22Rv1 cells assessed as relative inhibition after 96 hrs by propidium iodide staining based fluorescence 2D monolayer assay; format: functional, cell-based; conditions: 22Rv1, 96 h
DU-145 [18] = experiment: Antiproliferative activity against human DU145 cells assessed as relative inhibition after 96 hrs by propidium iodide staining based fluorescence 2D monolayer assay; format: functional, cell-based; conditions: DU-145, 96 h
LNCaP [19] = experiment: Antiproliferative activity against human LNCAP cells assessed as relative inhibition after 96 hrs by propidium iodide staining based fluorescence 2D monolayer assay; format: functional, cell-based
VCaP [20] = experiment: Antiproliferative activity against human VCaP cells assessed as relative inhibition after 96 hrs by propidium iodide staining based fluorescence 2D monolayer assay; format: functional, cell-based
HepG2 [21] = experiment: Cytotoxicity against human HepG2 cells assessed as reduction in cell viability at 100 uM after 72 hrs by MTT assay relative to control; format: functional
[22] = target: T1, Androgen receptor (Rattus norvegicus); experiment: as §1, with “activation at 1 uM” for “activation”, “assay relative to control” for “assay”; format: cell-based

Structure (SMILES)	Ratio IC50 (LNCaP [1])	IC50 (VCaP [2]) [µM]	solubility [3]	IC50 (CWR22R [4]) [µM]	IC50 (DU-145 [5]) [µM]	solubility [6]	Ratio IC50 (DU-145 [7])	IC50 (LNCaP [8]) [µM]	Ratio IC50 (VCaP [9])	Ratio IC50 (CWR22R [10])	inhibition [12]	IC50 (Androgen receptor) [µM]	microsomal CLint at 3 µM (in vitro) [µL/min/mg]	also measured
CC(O)(CS(=O)(=O)c1ccc(C(F)(F)F)cc1)C(=O)Nc1ccc(C#N)c(C(F)(F)F)c1 (stereo not given)	2	29.1	Soluble	21.5	32.8	Soluble	2	20.1	2	2	–	–	–	–
C[C@](O)(CSc1ccc(C(F)(F)F)cc1)C(=O)Nc1ccc(C#N)c(C(F)(F)F)c1	–	9.28	Soluble	9.75	17.2	Soluble	–	14.5	–	–	Dose-dependent effect	2.17	248	half-life at 3 µM [11]: 0.0933 h; Papp A→B at 2 h, 10 µM [13]: 5.8 ×10⁻⁶ cm/s; Papp B→A at 2 h, 10 µM [14]: 4.74 ×10⁻⁶ cm/s; AC50 (HepG2 [15]): 61.2 µM; minimal effective concentration (HepG2 [15]): 49.6 µM; efflux ratio at 2 h, 10 µM [16]: 0.817
C[C@](O)(CS(=O)(=O)c1ccc(F)cc1)C(=O)Nc1ccc(C#N)c(C(F)(F)F)c1 [(R)-BICALUTAMIDE]	–	51.6	–	46.2 to 46.3	45.4	–	–	45.2	–	–	–	–	6.48	IC50 (CWR22R [17]): 44.6 µM; IC70 (CWR22R [17]): 57.1 µM; IC70 (VCaP [2]): 83.4 µM; IC50 (DU-145 [18]): 41.2 µM; IC70 (DU-145 [18]): 52.6 µM; IC70 (CWR22R [4]): 58.7 µM; IC50 (LNCaP [19]): 47 µM; IC70 (LNCaP [19]): 59.3 µM; IC70 (DU-145 [5]): 56.6 µM; IC50 (VCaP [20]): 39.8 µM; IC70 (VCaP [20]): 52.1 µM; cell viability reduction (HepG2 [21]): 77%; IC70 (LNCaP [8]): 57.7 µM
CC(O)(CS(=O)(=O)c1ccc(C(F)(F)F)cc1)C(=O)Nc1ccc([N+](=O)[O-])c(C(F)(F)F)c1 (stereo not given)	<=2	31.5	Soluble	18.7	24.7	Soluble	<=2	17.9	<=2	<=2	–	–	–	–
CC(O)(COc1ccc(C#N)cc1C(F)(F)F)C(=O)Nc1ccc([N+](=O)[O-])c(C(F)(F)F)c1 (stereo not given)	–	8.38	–	5.55	7.65	–	–	5.69	–	–	Dose-dependent effect	0.0722	2.59	half-life at 3 µM [11]: 8.9 h; AC50 (HepG2 [15]): 20.2 µM; minimal effective concentration (HepG2 [15]): 10.6 µM; cell viability reduction (HepG2 [21]): 98%
C[C@](O)(CS(=O)(=O)c1ccc(OC(F)(F)F)cc1)C(=O)Nc1ccc(C#N)c(C(F)(F)F)c1	–	31.2	Soluble	18.8	31.6	Soluble	–	18.9	–	–	Dose-dependent effect	0.777	–	inhibition [22]: 53 to 69%
CC(O)(CS(=O)(=O)c1cccc(C(F)(F)F)c1)C(=O)Nc1ccc([N+](=O)[O-])c(C(F)(F)F)c1 (stereo not given)	<=2	30.8	Soluble	16.1	31.6	Soluble	<=2	16.2	<=2	<=2	Dose-dependent effect	1.07	–	–
